In PubChem BioAssay (NCI):
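Briefly, cells in 96-well plates were exposed to five compound concentrations for 48 h, and endpoints were estimated by linear interpolation. At the GI50, growth is halved. The concentration for full growth arrest is given as TGI.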

Experiments:
Experiment in all cases: growth of human tumour cells (NCI), 48 h
IGROV1 ovarian = tested on: IGROV1 ovarian
OVCAR-3 ovarian = tested on: OVCAR-3 ovarian
EKVX NSCLC = tested on: EKVX NSCLC
DU-145 prostate = tested on: DU-145 prostate
KM12 colon = tested on: KM12 colon
SK-MEL-28 melanoma = tested on: SK-MEL-28 melanoma
SF-295 CNS = tested on: SF-295 CNS
K-562 leukemia = tested on: K-562 leukemia
HT29 colon = tested on: HT29 colon
SK-MEL-5 melanoma = tested on: SK-MEL-5 melanoma
HOP-92 NSCLC = tested on: HOP-92 NSCLC
SW-620 colon = tested on: SW-620 colon
NCI-H23 lung = tested on: NCI-H23 lung
SN12C renal = tested on: SN12C renal
SNB-19 CNS = tested on: SNB-19 CNS
SF-268 CNS = tested on: SF-268 CNS
TK-10 renal = tested on: TK-10 renal
T-47D breast = tested on: T-47D breast
OVCAR-4 ovarian = tested on: OVCAR-4 ovarian
NCI/ADR-RES ovarian = tested on: NCI/ADR-RES ovarian
UACC-62 melanoma = tested on: UACC-62 melanoma
HCT-116 colon = tested on: HCT-116 colon
SK-OV-3 ovarian = tested on: SK-OV-3 ovarian
HOP-62 NSCLC = tested on: HOP-62 NSCLC
SF-539 CNS = tested on: SF-539 CNS
UO-31 renal = tested on: UO-31 renal
CAKI-1 renal = tested on: CAKI-1 renal
HS 578T breast = tested on: HS 578T breast
HCC-2998 colon = tested on: HCC-2998 colon
COLO 205 colon = tested on: COLO 205 colon
RPMI-8226 leukemia = tested on: RPMI-8226 leukemia
CCRF-CEM leukemia = tested on: CCRF-CEM leukemia
NCI-H226 lung = tested on: NCI-H226 lung
PC-3 prostate = tested on: PC-3 prostate
A549 NSCLC = tested on: A549 NSCLC
MALME-3M melanoma = tested on: MALME-3M melanoma
LOX IMVI melanoma = tested on: LOX IMVI melanoma
U251 CNS = tested on: U251 CNS
786-0 renal = tested on: 786-0 renal
SR leukemia = tested on: SR leukemia
OVCAR-8 ovarian = tested on: OVCAR-8 ovarian
MDA-N = tested on: MDA-N
MDA-MB-435 = tested on: MDA-MB-435
UACC-257 melanoma = tested on: UACC-257 melanoma
OVCAR-5 ovarian = tested on: OVCAR-5 ovarian
HCT-15 colon = tested on: HCT-15 colon
ACHN renal = tested on: ACHN renal
MOLT-4 leukemia = tested on: MOLT-4 leukemia
SK-MEL-2 melanoma = tested on: SK-MEL-2 melanoma
MDA-MB-231 breast = tested on: MDA-MB-231 breast
SNB-75 CNS = tested on: SNB-75 CNS
RXF 393 renal = tested on: RXF 393 renal
NCI-H460 lung = tested on: NCI-H460 lung
M14 melanoma = tested on: M14 melanoma
HL-60(TB) leukemia = tested on: HL-60(TB) leukemia
NCI-H522 lung = tested on: NCI-H522 lung
MCF7 breast = tested on: MCF7 breast
BT-549 breast = tested on: BT-549 breast

O/N=C1\CCc2nonc2\C1=N/Nc1ccccc1
TGI (IGROV1 ovarian): > 100 µM
TGI (OVCAR-3 ovarian): > 100 µM
TGI (EKVX NSCLC): > 100 µM
TGI (DU-145 prostate): > 100 µM
TGI (KM12 colon): > 100 µM
TGI (SK-MEL-28 melanoma): > 100 µM
TGI (SF-295 CNS): > 100 µM
TGI (K-562 leukemia): > 100 µM
TGI (HT29 colon): > 100 µM
TGI (SK-MEL-5 melanoma): > 100 µM
TGI (HOP-92 NSCLC): > 100 µM
TGI (SW-620 colon): > 100 µM
TGI (NCI-H23 lung): > 100 µM
TGI (SN12C renal): > 100 µM
TGI (SNB-19 CNS): > 100 µM
TGI (SF-268 CNS): > 100 µM
TGI (TK-10 renal): > 100 µM
TGI (T-47D breast): > 100 µM
TGI (OVCAR-4 ovarian): > 100 µM
TGI (NCI/ADR-RES ovarian): > 100 µM
TGI (UACC-62 melanoma): > 100 µM
TGI (HCT-116 colon): > 100 µM
TGI (SK-OV-3 ovarian): > 100 µM
TGI (HOP-62 NSCLC): > 100 µM
TGI (SF-539 CNS): > 100 µM
TGI (UO-31 renal): > 100 µM
TGI (CAKI-1 renal): > 100 µM
TGI (HS 578T breast): > 100 µM
TGI (HCC-2998 colon): > 100 µM
TGI (COLO 205 colon): > 100 µM
TGI (RPMI-8226 leukemia): > 100 µM
TGI (CCRF-CEM leukemia): > 100 µM
TGI (NCI-H226 lung): > 100 µM
TGI (PC-3 prostate): > 100 µM
TGI (A549 NSCLC): > 100 µM
TGI (MALME-3M melanoma): > 100 µM
TGI (LOX IMVI melanoma): > 100 µM
TGI (U251 CNS): > 100 µM
TGI (786-0 renal): > 100 µM
TGI (SR leukemia): > 100 µM
TGI (OVCAR-8 ovarian): > 100 µM
TGI (MDA-N): > 100 µM
TGI (MDA-MB-435): > 100 µM
TGI (UACC-257 melanoma): > 100 µM
TGI (OVCAR-5 ovarian): > 100 µM
TGI (HCT-15 colon): > 100 µM
TGI (ACHN renal): > 100 µM
TGI (MOLT-4 leukemia): > 100 µM
TGI (SK-MEL-2 melanoma): > 100 µM
TGI (MDA-MB-231 breast): > 100 µM
TGI (SNB-75 CNS): > 100 µM
TGI (RXF 393 renal): > 100 µM
TGI (NCI-H460 lung): > 100 µM
TGI (M14 melanoma): > 100 µM
TGI (HL-60(TB) leukemia): > 100 µM

Nc1cc2cccc[n+]2c2cccc(Cl)c12
GI50 (IGROV1 ovarian): 69.9 µM
GI50 (EKVX NSCLC): 32.1 µM
GI50 (DU-145 prostate): 46.4 µM
GI50 (KM12 colon): 4.1 µM
TGI (KM12 colon): 65.2 µM
GI50 (SK-MEL-28 melanoma): 17 µM
TGI (SK-MEL-28 melanoma): 41.7 µM
GI50 (SF-295 CNS): 33.4 µM
GI50 (K-562 leukemia): 11.2 µM
GI50 (HT29 colon): 56.2 µM
GI50 (SK-MEL-5 melanoma): 4.94 µM
TGI (SK-MEL-5 melanoma): 17.8 µM
GI50 (HOP-92 NSCLC): 51 µM
GI50 (SW-620 colon): 34.2 µM
GI50 (NCI-H23 lung): 14.3 µM
TGI (NCI-H23 lung): 65.6 µM
GI50 (SN12C renal): 7.16 µM
TGI (SN12C renal): 42.1 µM
GI50 (SNB-19 CNS): 12.7 µM
TGI (SNB-19 CNS): 84.1 µM
GI50 (SF-268 CNS): 4.94 µM
TGI (SF-268 CNS): 35.6 µM
GI50 (TK-10 renal): 94.7 µM
GI50 (T-47D breast): 9.86 µM
GI50 (OVCAR-4 ovarian): 17.1 µM
TGI (OVCAR-4 ovarian): 72.8 µM
GI50 (UACC-62 melanoma): 24.7 µM
TGI (UACC-62 melanoma): 59.8 µM
GI50 (HCT-116 colon): 36.9 µM
GI50 (SF-539 CNS): 23 µM
TGI (SF-539 CNS): 71.2 µM
GI50 (UO-31 renal): 61.4 µM
GI50 (HS 578T breast): 21.9 µM
TGI (HS 578T breast): 60.2 µM
GI50 (HCC-2998 colon): 11.4 µM
TGI (HCC-2998 colon): 32.4 µM
GI50 (COLO 205 colon): 15.5 µM
GI50 (RPMI-8226 leukemia): 21.3 µM
GI50 (CCRF-CEM leukemia): 12 µM
TGI (CCRF-CEM leukemia): 94.4 µM
GI50 (NCI-H226 lung): 18 µM
TGI (NCI-H226 lung): 86 µM
GI50 (A549 NSCLC): 30.9 µM
GI50 (MALME-3M melanoma): 3.21 µM
TGI (MALME-3M melanoma): 13.5 µM
GI50 (U251 CNS): 6.36 µM
TGI (U251 CNS): 33.8 µM
GI50 (NCI-H522 lung): 16.2 µM
TGI (NCI-H522 lung): 78 µM
GI50 (786-0 renal): 22.1 µM
GI50 (SR leukemia): 5.58 µM
TGI (SR leukemia): 51.2 µM
GI50 (MCF7 breast): 19.4 µM
GI50 (BT-549 breast): 16.1 µM
TGI (BT-549 breast): 48.8 µM
GI50 (OVCAR-8 ovarian): 24.1 µM
GI50 (MDA-N): 21.3 µM
TGI (MDA-N): 61.5 µM
GI50 (MDA-MB-435): 25.8 µM
TGI (MDA-MB-435): 72.2 µM
GI50 (UACC-257 melanoma): 11.3 µM
TGI (UACC-257 melanoma): 27.4 µM
GI50 (ACHN renal): 41.8 µM
GI50 (MOLT-4 leukemia): 7.46 µM
GI50 (SK-MEL-2 melanoma): 10.7 µM
TGI (SK-MEL-2 melanoma): 28.1 µM
GI50 (MDA-MB-231 breast): 17 µM
GI50 (NCI-H460 lung): 20.2 µM
TGI (NCI-H460 lung): 58.7 µM
GI50 (M14 melanoma): 36.4 µM
GI50 (HL-60(TB) leukemia): 47.4 µM
